The values that follow come from patent publication US20170247459A1, “COMBINATION THERAPY OF ANTIBODIES AGAINST HUMAN CSF-1R AND USES THEREOF” (HOFFMANN-LA ROCHE INC., priority 2012, published 2017).

For orientation: TGI means how far tumour growth fell short of that in controls.

One test concerns MC38 colon carcinoma. The test can be described thus: Tumor growth inhibition with chemotherapy or cancer immunotherapy combinations in subcutaneous syngeneic MC38 colon carcinoma model. The class given is in vivo, C57BL/6N mice. Particulars: for TCR (day 21) / TGI (day 21): compared to control antibody; for TGI (day 21): antibody 30 mg/kg i.p. weekly; for Median time to progression TV > 700 mm3: mouse, in vivo. The source says:
Inhibition of Tumor Growth Under Treatment with Anti-CSF-1R Monoclonal Antibody in Combination with Chemotherapy or Cancer Immunotherapy in Subcutaneous Syngeneic MC38 Colon Carcinoma Models

For another test, the system named is primary tumor growth. Briefly: Docetaxel combined with anti-mouse CSF-1R antibody (separate experiment). The test is classed as in vivo. The protocol:
Docetaxel was administered 3 times weekly as 1 cycle followed by 3 weeks drug holiday.

As to Proleukin: IL-2 (Proleukin, Novartis), in the test on MC38 colon carcinoma, the “TCR (day 21)” value worked out at 0.53, the “TGI (day 21)” value is 47% and the “Median time to progression TV > 700 mm3” value is 21. In addition, the “TGI (day 21)” value with MC38 colon carcinoma (listed as IL2) is given as 47%.
For the compound `CC(=O)O[C@@]12CO[C@@H]1C[C@H](O)[C@@]1(C)C(=O)[C@H](O)C3=C(C)[C@@H](OC(=O)[C@H](O)[C@@H](NC(=O)OC(C)(C)C)c4ccccc4)C[C@@](O)([C@@H](OC(=O)c4ccccc4)[C@H]21)C3(C)C` [docetaxel], the npTCR in the test on primary tumor growth (after 2 cycles of docetaxel) amounted to 0.55. Further, the TGI with primary tumor growth (after 2 cycles of docetaxel, docetaxel 3 mg/kg i.v., antibody 30 mg/kg i.p. weekly) worked out at 75%. Further, the median survival time in the test with primary tumor growth (in vivo) turned out to be 154 days.
For `O=C1[O][Pt]2([NH][C@@H]3CCCC[C@H]3[NH]2)[O]C1=O` [Oxaliplatin], in the test on MC38 colon carcinoma, the “TCR (day 21)” value worked out at 0.54, the “TGI (day 21)” value was 46% and the “Median time to progression TV > 700 mm3” value was 21.
